Measurements as given in patent US8592403B2, “Diazepine and diazocane compounds as MC4 agonists” (Pfizer Limited, priority 2008, dated 2013).

Key:
MC4 receptor = MC4 receptor (Homo sapiens, UniProt P32245); experiment: MC4 EC50 functional potency (protocol E of US2005/0176772 / WO 2005/077935); assay type: cell-based
Procedure: The compounds of formula (I) of the present invention have utility as MCR4 agonists in the treatment of various disease states.
MC5 and MC4 EC50 activity was determined as described by assay protocols D and E, respectively, in US2005/0176772 (pages 28-30).

CYP3A4 = target: T1, CYP3A4 (Homo sapiens, UniProt P08684); experiment: High density DDI 3 μM cocktail screen in human liver microsomes, midazolam probe; assay type: in vitro ADME; details: human, liver microsomes, probe midazolam, read-out: % inhibition 3A4 @ 3 μM
T1 construct: utilizes human liver microsomes together with isoform-specific clinical drug probes; from tissue; host or cells: human liver microsomes
Procedure: High Density Drug-Drug Interactions (DDI) 3 μM Cocktail Screen
A drug interaction is a situation in which a substance affects the activity of another drug, i.e. the effects are increased or decreased, or together they produce a new effect that neither produces on its own. Drug interactions may be the result of various processes but a relatively common one is where one drug affects the pharmacokinetics of another by inhibiting the cytochrome P450 that metabolises it. Because of the importance of these phenomena, assessment of the DDI potential for new chemical entities (NCEs) is considered important early on in the drug discovery process.
The DDI cocktail screen in human liver microsomes (HLM) is run in a fully automated fashion and the aim of the screen is to provide a single-point assessment of the DDI potential of new chemical entity (NCE; tested at […]) against the 4 primary cytochrome P450 enzymes, 1A2, 2D6, 2C9 and 3A4.
The substrate cocktail approach for P450 DDI utilizes human liver microsomes together with isoform-specific clinical drug probes and permits the simultaneous measurement of the inhibition of P450 1A2, 2C9, 2D6 & 3A4 activities in a single incubation. This is run in high throughput with simultaneous detection of metabolites by LC-MS/MS. This method has been thoroughly tested and evaluated using standard compounds.
Appearance of the metabolite of each substrate is measured over time in the presence and absence of the NCE (test compound/inhibitor) at a concentration of 3 μM. The compounds are assessed for their inhibitory potential as a percentage value and interpreted using the following scheme.

[1] = In vitro metabolism rate determination, human liver microsome (HLM) assay; assay type: in vitro ADME; details: human, liver microsomes, read-out: HLM: Clint, app
Text: In Vitro Metabolism Rate Determination (Human Liver Microsome (HLM); Rat Liver Microsome (RLM) Assay)
Many drugs are metabolised by the cytochrome P450 mono-oxygenase system. This enzyme is found in high concentrations in the liver and is bound to the endoplasmic reticulum of the hepatocyte. The enzyme system can be obtained in semi-purified state by the preparation of the hepatic microsomal fractions. Determining a compound's in vitro half-life in such a system provides a useful indicator of metabolic stability.
Methodology for In Vitro Rate Determination Using Hepatic & Supermix Microsomes
The method outlined below is for a total incubation volume of 1.5 ml.
1. The following mixture is prepared in a test tube:
2. Defrost microsomes at room temperature and add sufficient microsomes to give a final concentration of 0.5 nmol cytochrome P450/ml of incubation e.g. for a 1.5 ml incubation, the volume of microsomes to be added is:
3. Add sufficient MilliQ water to give a total incubation volume of 1.425 ml.
6. Add substrate to the incubation. The substrate should be at an initial concentration of 1 μM. The volume of substrate required in the remaining 1.162.5 ml incubation is calculated as follows: […]
8. Pre-incubate the tube containing the incubation mix, also positive control and no cofactor tubes in the thermostatically controlled shaking water bath set at 37° C. for approx 5 min.
9. Add NADP to initiate reaction (75 μl to each 1.162.5 ml incubation mix, 12.5 μl to positive control tube and 5 μl to no substrate tube) and take first time point immediately. The PNA positive control, no cofactor control and no substrate tubes are incubated for the total incubation time.
10. Remove 100 μl aliquots up to 9 different sampling points from 0 to 60 min (usually 0, 3, 5, 10, 15, 20, 30, 45 & 60 min) and terminate reaction. Longer incubation times can be used, but, after 120 min the microsomes deteriorate. The reaction may be terminated by addition of organic solvent, acid or base. At the end of the incubation process the no cofactor and no substrate controls in a similar manner i.e. terminate with the same reagent.
11. Analyse samples (including no cofactor and no substrate control) by a specific assay for the substrate to determine the disappearance kinetics.
Data obtained using the procedure described above can be quantified in terms of the substrates in vitro intrinsic clearance (Clint). Providing that the substrate concentration is below Km, the metabolism should be 1st order giving a log-linear plot of substrate disappearance with time.
The gradient of this line is the first order rate constant (k) for the substrate disappearance and is determined by regression analysis. This rate constant can be converted to the half-life according to the following equation.
Alternatively the rate constant can be converted to an intrinsic clearance (Clint) according to the following equation:— Clint(μl/min/mg)=(k/protein concentration in incubation (mg/ml))*1000

Chain of MC4 receptor (P32245 whole entry): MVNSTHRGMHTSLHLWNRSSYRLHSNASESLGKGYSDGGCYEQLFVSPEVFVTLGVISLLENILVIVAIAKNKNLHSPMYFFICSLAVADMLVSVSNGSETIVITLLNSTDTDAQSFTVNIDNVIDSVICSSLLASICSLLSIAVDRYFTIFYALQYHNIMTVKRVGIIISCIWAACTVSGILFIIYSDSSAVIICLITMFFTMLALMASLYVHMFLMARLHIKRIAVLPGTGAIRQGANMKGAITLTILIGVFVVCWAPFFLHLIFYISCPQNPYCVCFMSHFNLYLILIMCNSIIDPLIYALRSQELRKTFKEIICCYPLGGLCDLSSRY
T1 sequence (P08684 whole entry, canonical isoform): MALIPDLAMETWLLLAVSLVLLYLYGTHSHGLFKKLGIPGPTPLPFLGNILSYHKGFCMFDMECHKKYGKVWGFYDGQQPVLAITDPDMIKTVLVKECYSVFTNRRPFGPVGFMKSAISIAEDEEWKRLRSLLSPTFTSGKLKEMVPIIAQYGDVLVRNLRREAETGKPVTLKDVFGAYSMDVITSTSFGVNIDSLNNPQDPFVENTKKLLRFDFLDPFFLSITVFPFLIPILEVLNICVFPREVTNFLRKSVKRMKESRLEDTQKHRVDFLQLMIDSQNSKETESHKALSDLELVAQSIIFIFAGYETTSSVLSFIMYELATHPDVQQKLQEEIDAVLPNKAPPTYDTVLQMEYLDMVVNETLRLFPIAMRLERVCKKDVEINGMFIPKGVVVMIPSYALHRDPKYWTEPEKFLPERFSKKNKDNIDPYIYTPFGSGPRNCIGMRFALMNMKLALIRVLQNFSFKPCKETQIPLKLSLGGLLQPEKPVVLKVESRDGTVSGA

EC50 (MC4 receptor) [nM] | inhibition at 3 µM (CYP3A4) [%] | microsomal CLint at 1 μM [1] [µL/min/mg] | Compound
44.8 | – | 32.8 | COC(=O)N1CCN(C(=O)[C@@H]2CN(C(C)(C)C)C[C@H]2c2ccc(F)cc2F)CCC1c1ccc(F)cc1F (mixture of isomers) [Example 54]
54.6 | 56.5 | 43 | CS(=O)(=O)N1CCN(C(=O)[C@@H]2CN(c3ccc(C#N)nn3)C[C@H]2c2ccc(F)cc2F)CCCC1c1ccc(F)cc1 (mixture of isomers) [Example 77]
206 | – | 27.9 | CC(=O)N1CCN(C(=O)[C@@H]2CN(C(C)(C)C)C[C@H]2c2ccc(F)cc2F)CCC1c1ccc(Cl)cc1 (mixture of isomers) [Example 84]
404 | 30.5 | 48.4 | CC(C)(C)N1C[C@@H](C(=O)N2CCC(c3ccc(Cl)cc3)N(S(C)(=O)=O)CC2)[C@H](c2ccc(F)cc2F)C1 (mixture of isomers) [Example 85]
97.2 | 20.3 | 29.6 | COC(=O)N1CCN(C(=O)[C@@H]2CN(C(C)(C)C)C[C@H]2c2ccc(F)cc2F)CCC1c1ccc(Cl)cc1 (mixture of isomers) [Example 86]
35.2 | 0 | – | CCOC(=O)N1CCN(C(=O)[C@@H]2CN(C(C)(C)C)C[C@H]2c2ccc(F)cc2F)CCC[C@H]1c1ccc(Cl)cc1 [Example 52]
22.1 | 46.5 | – | N#Cc1ccc(N2C[C@@H](C(=O)N3CCC[C@@H](c4ccc(Cl)cc4)N(C(=O)CC(F)(F)F)CC3)[C@H](c3ccc(F)cc3F)C2)nn1 [Example 58]
247 | – | – | CC(C)(C)N1C[C@@H](C(=O)N2CCC[C@@H](c3ccc(Cl)cc3)N(C(=O)C3N=CC=N3)CC2)[C@H](c2ccc(F)cc2F)C1 [Example 64]
– | 21.5 | 40.1 | COC(=O)N1CCN(C(=O)C2CN(c3ccc(C#N)nn3)C[C@H]2c2ccc(OC)cc2F)CCC[C@@H]1c1ccc(Cl)cc1 (stereo partly shown) [Example 88]
– | 28.5 | 42.9 | COC(=O)N1CCN(C(=O)C2CN(c3ccc(C#N)nn3)CC2c2ccc(OC)cc2F)CCC[C@H]1c1ccc(Cl)cc1 (stereo partly shown) [Example 89]

The next lines start with the molecule.

Compound | EC50 (MC4 receptor) [nM] | inhibition at 3 µM (CYP3A4) [%] | microsomal CLint at 1 μM [1] [µL/min/mg]
CC(=O)N1CCN(C(=O)[C@@H]2CN(C(C)(C)C)C[C@H]2c2ccc(F)cc2F)CCC1c1ccc(F)cc1F (mixture of isomers) [Example 18] | 152 | 24.2 | 34
CC(C)(C)N1C[C@@H](C(=O)N2CCC(c3ccc(F)cc3F)N(S(C)(=O)=O)CC2)[C@H](c2ccc(F)cc2F)C1 (mixture of isomers) [Example 43] | 397 | – | 52
CCC(=O)N1CCN(C(=O)[C@@H]2CN(C(C)(C)C)C[C@H]2c2ccc(Cl)cn2)CCC[C@H]1c1ccc(Cl)cc1 [Example 19] | 64.8 | 41 | 62.6
CC(=O)N1CCN(C(=O)C2CN(c3ccc(C#N)nn3)C[C@H]2c2ccc(F)cc2F)CCC[C@H]1c1ccc(Cl)cc1 (stereo partly shown) [Example 21] | – | 35.1 | –
CC(=O)N1CCN(C(=O)[C@@H]2CN(c3ccc(C#N)nn3)C[C@H]2c2ccc(F)cc2F)CCC[C@H]1c1ccc(Cl)cc1 [Example 21] | 9.42 | – | –
CC(C)C(=O)N1CCN(C(=O)[C@@H]2CN(c3ccc(C#N)nn3)C[C@H]2c2ccc(F)cc2F)CCC[C@H]1c1ccc(Cl)cc1 [Example 22] | 5.25 | 59.2 | –
COc1ccc([C@@H]2CN(c3ccc(C#N)nn3)C[C@H]2C(=O)N2CCC[C@@H](c3ccc(Cl)cc3)N(C(=O)C3CC3)CC2)c(F)c1 [Example 23] | 4.31 | 56.2 | 29.1
COc1ccc([C@@H]2CN(c3ccc(C#N)nn3)C[C@H]2C(=O)N2CCC[C@@H](c3ccc(Cl)cc3)N(C(=O)C(C)C)CC2)c(F)c1 [Example 24] | 2.27 | 43.4 | 37.3
COc1ccc([C@@H]2CN(c3ccc(C#N)nn3)C[C@H]2C(=O)N2CCC[C@@H](c3ccc(Cl)cc3)N(C(=O)CC(F)(F)F)CC2)c(F)c1 [Example 26] | 8.31 | 20.4 | 30.2
COc1ccc([C@@H]2CN(c3ccc(=O)n(C)n3)C[C@H]2C(=O)N2CCC[C@@H](c3ccc(Cl)cc3)N(C(C)=O)CC2)c(F)c1 [Example 27] | 5.02 | 25.7 | 20.4
CCC(=O)N1CCN(C(=O)[C@@H]2CN(c3ccc(=O)n(C)n3)C[C@H]2c2ccc(OC)cc2F)CCC[C@H]1c1ccc(Cl)cc1 [Example 28] | 3.4 | 40.8 | 21.5
COc1ccc([C@@H]2CN(c3ccc(=O)n(C)n3)C[C@H]2C(=O)N2CCC[C@@H](c3ccc(Cl)cc3)N(C(=O)CC(F)(F)F)CC2)c(F)c1 [Example 30, 6-[(3S,4R)-3-{[5S-(4-chlorophenyl)-4-(3,3,3-trifluoropropanoyl)-1,4-diazocan-1-yl]carbonyl}-4-(2-fluoro-4-methoxyphenyl)pyrrolidin-1-yl]-2-methylpyridazin-3(2H)-one] | 6.01 | 36.8 | 18.2
CC(=O)N1CCN(C(=O)[C@@H]2CN(c3ccc(=O)n(C)n3)C[C@H]2c2ccc(F)cc2F)CCC[C@H]1c1ccc(Cl)cc1 [Example 32] | 6.63 | – | 14.8
CC(C)C(=O)N1CCN(C(=O)[C@@H]2CN(c3ccc(=O)n(C)n3)C[C@H]2c2ccc(F)cc2F)CCC[C@H]1c1ccc(Cl)cc1 [Example 33, 6-[(3S,4R)-3-{[5S-(4-chlorophenyl)-4-isobutyryl-1,4-diazocan-1-yl]carbonyl}-4-(2,4-difluorophenyl)pyrrolidin-1-yl]-2-methylpyridazin-3(2H)-one] | 3.5 | 45.2 | 17
Cn1nc(N2C[C@@H](C(=O)N3CCC[C@@H](c4ccc(Cl)cc4)N(C(=O)C4CC4)CC3)[C@H](c3ccc(F)cc3F)C2)ccc1=O [Example 34] | 3.9 | 69.2 | 30.9
CCC(=O)N1CCN(C(=O)[C@@H]2CN(c3ccc(=O)n(C)n3)C[C@H]2c2ccc(F)cc2F)CCC[C@H]1c1ccc(Cl)cc1 [Example 35] | 5.29 | 68.3 | –
CC(=O)N1CCN(C(=O)[C@@H]2CN(c3ccc(=O)n(C)n3)C[C@H]2c2ccc(Cl)cn2)CCC[C@H]1c1ccc(Cl)cc1 [Example 36] | 7.67 | – | –
CCC(=O)N1CCN(C(=O)[C@@H]2CN(c3ccc(=O)n(C)n3)C[C@H]2c2ccc(Cl)cn2)CCC[C@H]1c1ccc(Cl)cc1 [Example 38] | 6.9 | – | –
